Type in all cases: physicochemical
Series [1] is described as follows: Variable temperature mass spectrometry (VTMS): binding of the first second sphere water. The note with it: gas phase. The method, then: VTMS and CIVP: All experiments were carried out in a home-built quadrupole time-of-flight mass spectrometer described elsewhere (Waller, 2019). Briefly, the complexes were introduced into the gas phase via an electrospray ionization (ESI) source purged with dry air using PEEK tubing of 50 μm inner diameter. All samples were diluted to 50-100 μM in 50/50 acetonitrile/water from 500 μM stock solutions and an optimized flow rate of 0.6 μL/min was employed. The ESI voltages were typically 2050-2080 V, low enough to prevent sample degradation while still ensuring steady signal. Once generated, the ions were introduced into a vacuum system and stored in a room temperature […] trap. Ions were extracted from this trap and mass selected by a quadrupole mass filter (Extrel), then guided into a cryogenically cooled ion trap capable of operating in a temperature range of 310 K-3 K. For Variable temperature mass spectrometry (VTMS) measurements (Racow, 2019), a mixture of water and helium was introduced via a pulsed valve allowing the formation of hydrated complexes, if thermodynamically feasible. A fraction of ions was then extracted, at 10 Hz, into a reflectron time-of-flight (TOF) mass spectrometer to analyze the relative intensities of the resulting hydrates. The trap was cooled down from 310 K at a rate of ˜1 K/min and mass spectra were collected by summing 1000 scans at 10 K intervals in the cooling down period. The partial pressure of water was maintained between 4×10−8 to 2×10^−7 Torr as detected by a residual gas analyzer (Extorr). Vibrational spectra were recorded using a method known as Cryogenic Ion Vibrational Predissociation (CIVP) spectroscopy as described previously (Yang 2019). Briefly, a mixture of N2 and helium was seeded into the cryogenic ion trap, encouraging the formation of nitrogen adducts (so-called “tags”) typically between 45 K-48 K. Tagged complexes were extracted into the TOF and intersected by a tunable infrared laser pulse from a Nd:YAG pumped OPO/OPA system (LaserVision). The tagged ions absorb a single photon when the wavelength is resonant with a vibrational transition, resulting in the desorption of the tag from the ions. Fragment ion yields were subsequently quantified by a reflectron mass spectrometer. The ratio of fragment to tagged ions, corrected for the laser power, at each wavelength thus yields a linear absorption spectrum of the ions of interest that can be analyzed in the same way as atypical FTIR spectrum.
Data Analysis and Detailed Discussion. The variable temperature mass spectra and corresponding speciation curves of the protonated tripeptide+NOTA (4) and the Ga-tripeptide-NOTA complex (^natGa-4) are shown in FIGS. 71-75. At the highest temperature shown in both figures, no water adduct is observed. […] Similar values were found for the metal-free complex, further confirming that only second sphere hydration events were observed.

Series [2] is described as follows: Cleavage assay for cold complexes: pH-dependent autolytic cleavage monitored by LCMS/analytical HPLC. The settings on record: 80° C. and pH 4.5. The procedure: Cleavage of the cold model complexes was observed over a range of physiological pH conditions, including pH values of 4.5, 5.5, 6.5, and 7.5. Aqueous buffer solutions were prepared using 10 mM sodium acetate (pH 4.5 and 5.5) or 10 mM HEPES (pH 6.5 and 7.5), which were subsequently adjusted to the desired pH using NaOH and/or HCl. An aliquot of the complex was placed in an aqueous solution of the desired pH and incubated for 48 hours at 80° C., monitored regularly via LCMS.

The nature of series [3]: Temperature-dependent autolytic release from ^67Ga-radiolabeled model peptides (radioHPLC). The method, then:
^67Ga-citrate was purchased from Jubilant Radiopharma at an average specific activity of 205.0 MBq/mL. The ^67Ga-citrate solution was first converted to ^67GaCl3 using an established solid-phase extraction protocol (Pandy, 2021). The resulting average specific activity of the obtained ^67Ga-chloride solution used for solution radio-labelling was 80.5 MBq/mL. For radio-labeling of NOTA-based model peptides or compound 10, a 20 μL aliquot containing 4.5 MBq of ^67GaCl3 was added to the conjugate (10 nmol, 300 μL) in 10 mM of sodium acetate (NaOAc) buffer. The pH of the solution was adjusted to 5.0. Radiolabeling was completed after 20 minutes at room temperature. The radiolabeled conjugates were characterized with radio-HPLC.

Series [4] is described as follows: Quantitation of the ^68Ga(8) product released from TG-10 resin over time.

With “2,2′-(7-(2-((1-1-((2-(((S)-1-amino-3-(1H-indol-3-yl)-1-oxopropan-2-yl)amino)-2-oxoethyl)amino)-3-hydroxy-1-oxopropan-2-yl)amino)-2-oxoethyl)-1,4,7-triazonane-1,4-diyl)diacetic acid [Compound 4]”, in series [1], the “ΔG (ΔG^298) for the binding of the first second sphere water” value is -6.74 ± 0.19 kcal/mol, the “ΔH for the binding of the first second sphere water” value is -13.2 ± 0.12 kcal/mol and the “ΔS for the binding of the first second sphere water” value is −91.3 +/− 2.2 J/mol K.

As to “(S)-2,2′-(7-(2-((2-((2-((I-amino-3-(1H-indol-3-yl)-1-oxopropan-2-yl)amino)-2-oxoethyl)amino)-2-oxoethyl)amino)-2-oxoethyl)-1,4,7-triazonane-1,4-diyl)diacetic acid [Compound 3]”, in series [2], the “autolytic release (analytical HPLC chromatograms)” value is “no autolytic release”.

With “^67Gallium 2,2′,2″-(10-(2-((1-1-((2-(((S)-1-amino-3-(H-indol-3-yl)-1-oxopropan-2-yl)amino)-2-oxoethyl)amino)-3-hydroxy-1-oxopropan-2-yl)amino)-2-oxoethyl)-1,4,7,10-tetraazacyclododecane-1,4,7-triyl)triacetate [^67Ga-5]”, the “autolytic release (analytical radioHPLC chromatograms)” value in series [3] (25° C.), in series [3] (37° C.) and in series [3] (80° C.) was “no autolytic release” each time.

Regarding “^67Gallium (S)-2,2′-(7-(2-((2-((2-((I-amino-3-(1H-indol-3-yl)-1-oxopropan-2-yl)amino)-2-oxoethyl)amino)-2-oxoethyl)amino)-2-oxoethyl)-1,4,7-triazonane-1,4-diyl)diacetate [^67Ga-3]”, the “autolytic release (analytical radioHPLC chromatograms)” value in series [3] (25° C.) is listed as “no autolytic release”; in series [3] (37° C.) it was “lack of fast autolytic release”.

With “^68Gallium (((1S)-1-carboxy-5-(3-(naphthalen-2-yl)-2-((1r,4S)-4-((6-oxo-6-((4-((1,4,7-tris(carboxymethyl)-1,4,7-triazonan-2-yl)methyl)phenyl)amino)hexanamido)methyl)cyclohexane-1-carboxamido)propanamido)pentyl)carbamoyl)-L-glutamic acid triacetate [^68Ga(8)]”, the “Activity released per time” value is given as 14.2 ± 1.57% in series [4] (released from TG-10, 10 min); 17.9 ± 0.97% in series [4] (released from TG-10, 20 min); 18.9 ± 0.61% in series [4] (released from TG-10, 30 min); 15.4 ± 0.85% in series [4] (released from TG-10, 60 min); 11.5 ± 0.84% in series [4] (released from TG-10, 90 min); 9.2 ± 1.56% in series [4] (released from TG-10, 120 min). For the same substance, the Cumulative released activity in series [4] (released from TG-10, 10 min) is 14.2 ± 1.57%; in series [4] (released from TG-10, 20 min), 32.1 ± 0.60%; in series [4] (released from TG-10, 30 min), 50.9 ± 1.21%; in series [4] (released from TG-10, 60 min) it was 66.3 ± 0.36%; in series [4] (released from TG-10, 90 min), 77.8 ± 1.20%; in series [4] (released from TG-10, 120 min) it was 87.0 ± 2.76%. For the same substance, the Cumulative released activity in series [4] (released from TG-10, last line of table, time not given) was determined as 88.0%.

Take “^natCopper 2,2′,2-(10-(2-(((R)-1-((2-(((S)-1-amino-3-(1H-indol-3-yl)-1-oxopropan-2-yl)amino)-2-oxoethyl)amino)-3-hydroxy-1-oxopropan-2-yl)amino)-2-oxoethyl)-1,4,7,10-tetraazacyclododecane-1,4,7-triyl)triacetate [^natCu-5]”: the “autolytic release (analytical HPLC chromatograms)” value in series [2] is on record as “no autolytic release”.

As to “^natCopper 2,2′-(7-(2-((1-1-((2-(((S)-1-amino-3-(1H-indol-3-yl)-1-oxopropan-2-yl)amino)-2-oxoethyl)amino)-3-hydroxy-1-oxopropan-2-yl)amino)-2-oxoethyl)-1,4,7-triazonane-1,4-diyl)diacetate [^natCu-4]”, the “autolytic release (analytical HPLC chromatograms)” value in series [2] was “no autolytic release”.

As to “^natCopper (S)-2,2′-(7-(2-((2-((2-((1-amino-3-(1H-indol-3-yl)-1-oxopropan-2-yl)amino)-2-oxoethyl)amino)-2-oxoethyl)amino)-2-oxoethyl)-1,4,7-triazonane-1,4-diyl)diacetate [^natCu-3]”, in series [2], the “autolytic release (analytical HPLC chromatograms)” value is on record as “no autolytic release”.

In the case of “^natGallium 2,2′,2″-(10-(2-((1-1-((2-(((S)-1-amino-3-(1H-indol-3-yl)-1-oxopropan-2-yl)amino)-2-oxoethyl)amino)-3-hydroxy-1-oxopropan-2-yl)amino)-2-oxoethyl)-1,4,7,10-tetraazacyclododecane-1,4,7-triyl)triacetate [^natGa-5]”, in series [2], the “autolytic release (analytical HPLC chromatograms)” value was “no autolytic release”.

On to “^natGallium 2,2′-(7-(2-((1-1-((2-(((S)-1-amino-3-(1H-indol-3-yl)-1-oxopropan-2-yl)amino)-2-oxoethyl)amino)-3-hydroxy-1-oxopropan-2-yl)amino)-2-oxoethyl)-1,4,7-triazonane-1,4-diyl)diacetate [^natGa-4]”, for which, in series [1], the “ΔG (ΔG^298) for the binding of the first second sphere water” value was -7.19 ± 0.645 kcal/mol, the “ΔH for the binding of the first second sphere water” value is -11.7 ± 0.621 kcal/mol and the “ΔS for the binding of the first second sphere water” value is recorded as −62.9 +/− 17.5 J/mol K.

As to “^natScandium 2,2′,2″-(10-(2-((1-1-((2-(((S)-1-amino-3-(1H-indol-3-yl)-1-oxopropan-2-yl)amino)-2-oxoethyl)amino)-3-hydroxy-1-oxopropan-2-yl)amino)-2-oxoethyl)-1,4,7,10-tetraazacyclododecane-1,4,7-triyl)triacetate [^natSc-5]”, in series [2], the “autolytic release (analytical HPLC chromatograms)” value is on record as “no autolytic release”.

The values are drawn from US20250205372A1, “RADIOPHARMACEUTICAL COMPOSITIONS, SYNTHETIC METHODS, AND METHODS OF TREATMENT” (The Research Foundation for The State University of New York, priority 2022, published 2025).
